In patent US20170362609A1, “[…] NANOPARTICLES FOR CODELIVERY OF WATER-INSOLUBLE SMALL MOLECULES AND RNAi” (Massachusetts Institute of Technology, priority 2016, published 2017):

Columns and labels:
5′-GMP = 5′-GMP binding with platinum species by 1HNMR
Experimental: The binding kinetics of 5′-GMP to each platinum species were determined by measuring the relative amounts of free and Pt-bound 5′-GMP at each time point, integrating the ratio of the ^1HNMR peaks at 8.5 ppm to 8.09 ppm.

BCL-2 siRNA [1] = assay: siRNA binding with platinum species by MALDI-TOF-MS; conditions: 10-fold excess of platinum
Experimental: The reaction mixture was placed in a 37° C. incubator and 10 μL of sample were removed at various time points to obtain MALDI-TOF-MS spectra (positive model).

MCF-7 cells [2] = assay: Intracellular platinum uptake; assay type: cell-based
Experimental: FIG. 19A is a bar graph showing platinum uptake (μg Pt/cell) for various compositions. […] Experiments were performed in triplicate. […] IC50 values were derived from three independent experiments each with four technical replicates per condition.
MCF-7 cells were seeded in 12-well plates at a density of 10^5 cells per well and incubated overnight in 1 mL of DMEM containing 10% FBS. […]

OVCAR4 cells = assay: MTT cytotoxicity; assay type: cell-based; conditions: platinum concentration
MCF-7 cells [3] = assay: Pt-DNA adducts in cells; assay type: cell-based; conditions: 24 h after treatment
Experimental: FIG. 19B is a bar graph showing the total number of Pt-DNA adducts (pg Pt/μg DNA) as assessed after 24 h of incubation with each treatment group, as defined in the description of FIG. 19A. DNA was isolated after cellular lysis and the content of DNA-bound Pt was determined by ICP-MS. Experiments were performed in triplicate. […] IC50 values were derived from three independent experiments each with four technical replicates per condition. […] In all cases, significance is defined as *p<0.05, **p<0.01, and ***p<0.001.
Atomic absorption spectroscopy (generation 8.0, Perkin Elmer) was used to study the kinetics of siRNA platination and to determine the platinum content in all micellar formulations. Inductively coupled plasma mass spectrometry (ICP-MS, Xseries II, Thermo scientific, USA) was used for quantitative determination of trace levels of platinum in cancer cells and to quantify Pt-DNA adduct formation. Sizes and distributions of micelles were determined by dynamic light scattering (DLS) with a vertically polarized He—Ne laser (DAWN EOS, Wyatt Technology, USA). The size and morphologies of the micelles very visualized using a JEOL JEM-1011 electron microscope. Particle size and zeta potential measurements were conducted on a Malvern Zetasizer Nano ZS90. Micelles were prepared by directly dissolving various modified triblock copolymers in water at 0.5 mg/mL.

A2780 cells = assay: MTT cytotoxicity; assay type: cell-based; conditions: platinum concentration
MCF-7 cells [4] = assay: MTT cytotoxicity; assay type: cell-based; conditions: platinum concentration, siRNA 100 nM
Experimental: In vitro Cytotoxicity Measurements. MCF-7 cells were seeded in 96-well plates at a density of 1×10^4 cells/well. 100 μL of DMEM supplemented with 10% FBS were added to each well and the cells were incubated at 37° C. for 24 h. […] All experiments were conducted in triplicate.

A2780DDP cells = assay: MTT cytotoxicity; assay type: cell-based; conditions: platinum concentration
BCL-2 siRNA [5] = assay: Double-stranded siRNA binding with platinum species by AAS; conditions: by 3 h of incubation
Experimental: A double-stranded RNA (sense: […]-ATT; antisense: […]-[…]) was mixed with OxaPt(II) at a molar ratio of 1:10 in RNAase free water (RNA final concentration: 5 μM; Pt final concentration at 50 μM; total volume of 100 μL). […] The RNA was then isolated using a centrifugation separation device (molecular cut-off 3000 Da, spun at 10,000 rpm; Nanosep®3k, Pall Corporation, USA). Five wash cycles with RNAase free water (5×100 μL) then ensued. An aliquot of 2 μL from each sample was obtained for optical density (OD) measurements in order to quantify the concentration of RNA in the original sample, using a NanoDrop reader. The remainder of each sample was diluted in 3% HNO3 for Pt content measurement via AAS. The experiments were performed in triplicate and data are presented such that the concentration of Pt-RNA adducts at each time point are expressed as “μmol Pt/μmol RNA”. Analogous methods were employed to obtain similar values for the numbers of Pt-RNA adducts formed by the reaction of siRNA with OxaPt(IV), CisPt(II) or CisPt(IV) at similar time points.
MALDI/TOF MS was used to ascertain the kinetics of platinum-RNA adduct formation using BCL-2 siRNA that was incubated with a 10-fold excess of various platinum(II) or platinum(IV) species. […]

## N.N.[Cl][Pt][Cl] [CisPt(II), cisplatin]
5′-GMP; data not shown
  formation of Pt(NH3)2(5′-GMP)2 adducts: Similarly rapid formation and time dependent increases
BCL-2 siRNA [1]
  time at which Pt-siRNA adducts could be detected: ≤ 30 m

## O=C1[O][Pt]2([NH][C@@H]3CCCC[C@H]3[NH]2)[O]C1=O [OxaPt(II), Oxaliplatin]
MCF-7 cells [2]; 1 h
  Platinum uptake 1 h: 369 ± 24 pg Pt/cell (×10^−4)
MCF-7 cells [2]; 4 h
  Platinum uptake 4 h: 535 ± 16 pg Pt/cell (×10^−4)
OVCAR4 cells
  IC50: 15.5 ± 0.5 µM
MCF-7 cells [3]
  Pt-DNA adducts After 24 h: 41.10 ± 9.84 ng Pt/μg DNA
5′-GMP; 30 m incubation, 10 mM 5′-GMP, 5 mM Pt, 37° C.
  DACHPt(5′-GMP)2 adducts, share of the 5′-GMP pool: approximately 10%
5′-GMP; over the first 6 h, 10 mM 5′-GMP, 5 mM Pt, 37° C.
  DACHPt(5′-GMP)2 adducts, share of the total 5′-GMP pool: > 40%
A2780 cells
  IC50: 2900 ± 280 nM
MCF-7 cells [4]
  IC50: 23.1 ± 0.25 µM
BCL-2 siRNA [1]
  time at which Pt-siRNA adducts could be detected: 1 h
A2780DDP cells
  IC50: 18.8 ± 0.99 µM
BCL-2 siRNA [5]
  siRNA transcripts platinated: > 50%
